Values of other authors in patent publication US6391860B1, “Method for preparation and use of paste formed by controlled reaction of sucralfate with hydrochloric acid” (priority 1999, dated 2002).

## aluminum hydroxide salt of sucrose octasulfate [Sucralfate]
  solubility in most polar and non-polar solvents: insoluble
  solubility in strong acid and strong alkali: soluble
